Counter-ions that a name gives are not always drawn.

A short description of the data set: Dissolution of doxazosin mesylate in recrystallisation solvents. It counts as physicochemical. The source says:
Although doxazosin is mostly used as monomesylate, the preparation of this salt has not to date been described. […] The product isolated after cooling the suspension contains chloroform, which is a solvent which is objectionable from the toxicological viewpoint and which can be removed only with difficulty and not without adverse effects on the active ingredient. […] In addition, the yield is poor and the material proves to be X-ray amorphous. […] Hot filtration of the suspension affords a small yield of the described ethanol modification A as residue on the filter. Cooling the filtrate results in only a moderate yield of impure A modification.

On to `COc1cc2nc(N3CCN(C(=O)C4COc5ccccc5O4)CC3)nc(N)c2cc1OC` (stereo not drawn) [doxazosin mesylate, 4-amino-2-[4-(1,4-benzodioxane-2-carbonyl)piperazin-1-yl]-6,7-dimethoxyquinazoline], for which, for the setting “75 times the amount of chloroform at the boiling point”, the solubility in chloroform result was “does not dissolve”. Besides, for the setting “350 times the amount of ethanol at the boiling point of the solvent”, the solubility in ethanol result is listed as “does not dissolve”. Moreover, the solubility in water result (water, compared with chloroform) was “dissolves better in water”.

For the origin of these results see patent US6500830B1, “Conversion of modification D to modification A of doxazosin mesylate” (Knoll Aktiengesellschaft, priority 1998, dated 2002).
